# Measurements: ChEMBL document CHEMBL3885861, “Open TG-GATES”
# Species: Rattus norvegicus
# Test: Open TG-GATES - Regimen: Daily Repeat
# Assay type: toxicity, organism-based, Sprague-Dawley
# Parameters: regimen Daily Repeat, gender Male, age 6 weeks
# Settings: in vivo, po, 100 mg/kg, route gavage, dose level Low; for APTT / Bas / Eos / Fbg / Hb / Ht / Lym / MCH / MCHC / MCV / Mono / Neu / PT / Plat / RBC / Ret / WBC: tissue Blood; for KIDNEY_L / KIDNEY_R / KIDNEY_TOTAL: tissue Kidney; for LIVER: tissue Liver; for A/G / ALP / ALT / AST / BUN / CRE / Ca / Cl / DBIL / GLC / IP / K / LDH / Na / PL / RALB / TBIL / TC / TG / TP / gamma-GTP: tissue Plasma
compound,measurement,setting,value
CC(C)(S)[C@@H](N)C(=O)O [PENICILLAMINE],TERMINAL_BW,"72 h, time 3 day",236.4 g
same,APTT,"72 h, time 3 day",16.9 s
same,Bas,"72 h, time 3 day",0%
same,Eos,"72 h, time 3 day",1%
same,Fbg,"72 h, time 3 day",294.8 mg/dL
same,Hb,"72 h, time 3 day",13.7 g/dL
same,Ht,"72 h, time 3 day",41.6%
same,Lym,"72 h, time 3 day",78.8%
same,MCH,"72 h, time 3 day",20.9 pg
same,MCHC,"72 h, time 3 day",33%
same,MCV,"72 h, time 3 day",63.3 fL
same,Mono,"72 h, time 3 day",2.8%
same,Neu,"72 h, time 3 day",16.6%
same,PT,"72 h, time 3 day",14.1 s
same,Plat,"72 h, time 3 day",122 x10_4/uL
same,RBC,"72 h, time 3 day",658.2 x10_4/ul
same,Ret,"72 h, time 3 day",7.4%
same,WBC,"72 h, time 3 day",84.7 x10_2/uL
same,KIDNEY_L,"72 h, time 3 day",1 g
same,KIDNEY_R,"72 h, time 3 day",1 g
same,KIDNEY_TOTAL,"72 h, time 3 day",1.9 g
same,LIVER,"72 h, time 3 day",10.8 g
same,A/G,"72 h, time 3 day",0.9
same,ALP,"72 h, time 3 day",1491 IU/L
same,ALT,"72 h, time 3 day",40.2 IU/L
same,AST,"72 h, time 3 day",69.8 IU/L
same,BUN,"72 h, time 3 day",13 mg/dL
same,CRE,"72 h, time 3 day",0.2 mg/dL
same,Ca,"72 h, time 3 day",10.8 mg/dL
same,Cl,"72 h, time 3 day",106.6 meq/L
same,DBIL,"72 h, time 3 day",0.014 mg/dL
same,GLC,"72 h, time 3 day",183.8 mg/dL
same,IP,"72 h, time 3 day",7 mg/dL
same,K,"72 h, time 3 day",4.1 meq/L
same,LDH,"72 h, time 3 day",85 IU/L
same,Na,"72 h, time 3 day",143.8 meq/L
same,PL,"72 h, time 3 day",156 mg/dL
same,RALB,"72 h, time 3 day",2.7 g/dL
same,TBIL,"72 h, time 3 day",0.028 mg/dL
same,TC,"72 h, time 3 day",80.8 mg/dL
same,TG,"72 h, time 3 day",114.8 mg/dL
same,TP,"72 h, time 3 day",5.7 g/dL
same,gamma-GTP,"72 h, time 3 day",1.2 IU/L
same,TERMINAL_BW,"[…], time 7 day",276.9 g
same,TERMINAL_BW,"[…], time 14 day",325.3 g
same,TERMINAL_BW,"[…], time 28 day",410.3 g
same,APTT,"[…], time 7 day",17.9 s
same,Bas,"[…], time 7 day",0.2%
same,Eos,"[…], time 7 day",1%
same,Fbg,"[…], time 7 day",305.6 mg/dL
same,Hb,"[…], time 7 day",13.9 g/dL
same,Ht,"[…], time 7 day",42.4%
same,Lym,"[…], time 7 day",80.6%
same,MCH,"[…], time 7 day",20.7 pg
same,MCHC,"[…], time 7 day",32.9%
same,MCV,"[…], time 7 day",63 fL
same,Mono,"[…], time 7 day",2.4%
same,Neu,"[…], time 7 day",14.6%
same,PT,"[…], time 7 day",14.2 s
same,Plat,"[…], time 7 day",127.2 x10_4/uL
same,RBC,"[…], time 7 day",674.2 x10_4/ul
same,Ret,"[…], time 7 day",5.7%
same,WBC,"[…], time 7 day",102.7 x10_2/uL
same,APTT,"[…], time 14 day",17.2 s
same,Bas,"[…], time 14 day",0%
same,Eos,"[…], time 14 day",1%
same,Fbg,"[…], time 14 day",300.8 mg/dL
same,Hb,"[…], time 14 day",14.8 g/dL
same,Ht,"[…], time 14 day",43.6%
same,Lym,"[…], time 14 day",82.4%
same,MCH,"[…], time 14 day",20.7 pg
same,MCHC,"[…], time 14 day",34%
same,MCV,"[…], time 14 day",60.9 fL
same,Mono,"[…], time 14 day",1.8%
same,Neu,"[…], time 14 day",14%
same,PT,"[…], time 14 day",13.8 s
same,Plat,"[…], time 14 day",111.4 x10_4/uL
same,RBC,"[…], time 14 day",716 x10_4/ul
same,Ret,"[…], time 14 day",3.9%
same,WBC,"[…], time 14 day",83.6 x10_2/uL
same,APTT,"[…], time 28 day",18.8 s
same,Bas,"[…], time 28 day",0%
same,Eos,"[…], time 28 day",1.6%
same,Fbg,"[…], time 28 day",313 mg/dL
same,Hb,"[…], time 28 day",16.2 g/dL
same,Ht,"[…], time 28 day",46.8%
same,Lym,"[…], time 28 day",82.8%
same,MCH,"[…], time 28 day",20 pg
same,MCHC,"[…], time 28 day",34.6%
same,MCV,"[…], time 28 day",57.7 fL
same,Mono,"[…], time 28 day",1.8%
same,Neu,"[…], time 28 day",13%
same,PT,"[…], time 28 day",14.1 s
same,Plat,"[…], time 28 day",101.2 x10_4/uL
same,RBC,"[…], time 28 day",812.4 x10_4/ul
same,Ret,"[…], time 28 day",2.2%
same,WBC,"[…], time 28 day",93.4 x10_2/uL
same,KIDNEY_L,"[…], time 7 day",1.1 g
same,KIDNEY_R,"[…], time 7 day",1.1 g
same,KIDNEY_TOTAL,"[…], time 7 day",2.3 g
same,KIDNEY_L,"[…], time 14 day",1.3 g
same,KIDNEY_R,"[…], time 14 day",1.3 g
same,KIDNEY_TOTAL,"[…], time 14 day",2.6 g
same,KIDNEY_L,"[…], time 28 day",1.4 g
same,KIDNEY_R,"[…], time 28 day",1.4 g
same,KIDNEY_TOTAL,"[…], time 28 day",2.8 g
same,LIVER,"[…], time 7 day",12.9 g
same,LIVER,"[…], time 14 day",14.2 g
same,LIVER,"[…], time 28 day",15.7 g
same,A/G,"[…], time 7 day",0.9
same,ALP,"[…], time 7 day",1699 IU/L
same,ALT,"[…], time 7 day",43.4 IU/L
same,AST,"[…], time 7 day",66.2 IU/L
same,BUN,"[…], time 7 day",17 mg/dL
same,CRE,"[…], time 7 day",0.2 mg/dL
same,Ca,"[…], time 7 day",10.9 mg/dL
same,Cl,"[…], time 7 day",104.2 meq/L
same,DBIL,"[…], time 7 day",0.01 mg/dL
same,GLC,"[…], time 7 day",184 mg/dL
same,IP,"[…], time 7 day",7.5 mg/dL
same,K,"[…], time 7 day",3.9 meq/L
same,LDH,"[…], time 7 day",80.6 IU/L
same,Na,"[…], time 7 day",142.2 meq/L
same,PL,"[…], time 7 day",167.8 mg/dL
same,RALB,"[…], time 7 day",2.7 g/dL
same,TBIL,"[…], time 7 day",0.028 mg/dL
same,TC,"[…], time 7 day",85.2 mg/dL
same,TG,"[…], time 7 day",116.8 mg/dL
same,TP,"[…], time 7 day",5.8 g/dL
same,gamma-GTP,"[…], time 7 day",1.2 IU/L
same,A/G,"[…], time 14 day",0.9
same,ALP,"[…], time 14 day",1443.4 IU/L
same,ALT,"[…], time 14 day",42.8 IU/L
same,AST,"[…], time 14 day",61.6 IU/L
same,BUN,"[…], time 14 day",15 mg/dL
same,CRE,"[…], time 14 day",0.2 mg/dL
same,Ca,"[…], time 14 day",10.9 mg/dL
same,Cl,"[…], time 14 day",104.2 meq/L
same,DBIL,"[…], time 14 day",0.012 mg/dL
same,GLC,"[…], time 14 day",194.4 mg/dL
same,IP,"[…], time 14 day",6.7 mg/dL
same,K,"[…], time 14 day",3.9 meq/L
same,LDH,"[…], time 14 day",89 IU/L
same,Na,"[…], time 14 day",142.4 meq/L
same,PL,"[…], time 14 day",178.2 mg/dL
same,RALB,"[…], time 14 day",2.8 g/dL
same,TBIL,"[…], time 14 day",0.028 mg/dL
same,TC,"[…], time 14 day",85 mg/dL
same,TG,"[…], time 14 day",171.6 mg/dL
same,TP,"[…], time 14 day",6 g/dL
same,gamma-GTP,"[…], time 14 day",1 IU/L
same,A/G,"[…], time 28 day",0.9
same,ALP,"[…], time 28 day",1085 IU/L
same,ALT,"[…], time 28 day",35 IU/L
same,AST,"[…], time 28 day",57.2 IU/L
same,BUN,"[…], time 28 day",16.6 mg/dL
same,CRE,"[…], time 28 day",0.3 mg/dL
same,Ca,"[…], time 28 day",10.9 mg/dL
same,Cl,"[…], time 28 day",105.8 meq/L
same,DBIL,"[…], time 28 day",0.01 mg/dL
same,GLC,"[…], time 28 day",179.4 mg/dL
same,IP,"[…], time 28 day",6.2 mg/dL
same,K,"[…], time 28 day",3.9 meq/L
same,LDH,"[…], time 28 day",58 IU/L
same,Na,"[…], time 28 day",144 meq/L
same,PL,"[…], time 28 day",159.8 mg/dL
same,RALB,"[…], time 28 day",2.9 g/dL
same,TBIL,"[…], time 28 day",0.066 mg/dL
same,TC,"[…], time 28 day",77.2 mg/dL
same,TG,"[…], time 28 day",139.2 mg/dL
same,TP,"[…], time 28 day",6.3 g/dL
same,gamma-GTP,"[…], time 28 day",1.2 IU/L
